# Where a name gives a salt, the structure may show the parent alone.
# Biological target: T1, JAK3 (Homo sapiens, UniProt P52333)
# T1 construct: The Ramos B-cell line was acquired from ATCC (ATCC Catalog No. CRL-1596); host or cells: Ramos B-cell line (human)
# T1 sequence (P52333 1-1124): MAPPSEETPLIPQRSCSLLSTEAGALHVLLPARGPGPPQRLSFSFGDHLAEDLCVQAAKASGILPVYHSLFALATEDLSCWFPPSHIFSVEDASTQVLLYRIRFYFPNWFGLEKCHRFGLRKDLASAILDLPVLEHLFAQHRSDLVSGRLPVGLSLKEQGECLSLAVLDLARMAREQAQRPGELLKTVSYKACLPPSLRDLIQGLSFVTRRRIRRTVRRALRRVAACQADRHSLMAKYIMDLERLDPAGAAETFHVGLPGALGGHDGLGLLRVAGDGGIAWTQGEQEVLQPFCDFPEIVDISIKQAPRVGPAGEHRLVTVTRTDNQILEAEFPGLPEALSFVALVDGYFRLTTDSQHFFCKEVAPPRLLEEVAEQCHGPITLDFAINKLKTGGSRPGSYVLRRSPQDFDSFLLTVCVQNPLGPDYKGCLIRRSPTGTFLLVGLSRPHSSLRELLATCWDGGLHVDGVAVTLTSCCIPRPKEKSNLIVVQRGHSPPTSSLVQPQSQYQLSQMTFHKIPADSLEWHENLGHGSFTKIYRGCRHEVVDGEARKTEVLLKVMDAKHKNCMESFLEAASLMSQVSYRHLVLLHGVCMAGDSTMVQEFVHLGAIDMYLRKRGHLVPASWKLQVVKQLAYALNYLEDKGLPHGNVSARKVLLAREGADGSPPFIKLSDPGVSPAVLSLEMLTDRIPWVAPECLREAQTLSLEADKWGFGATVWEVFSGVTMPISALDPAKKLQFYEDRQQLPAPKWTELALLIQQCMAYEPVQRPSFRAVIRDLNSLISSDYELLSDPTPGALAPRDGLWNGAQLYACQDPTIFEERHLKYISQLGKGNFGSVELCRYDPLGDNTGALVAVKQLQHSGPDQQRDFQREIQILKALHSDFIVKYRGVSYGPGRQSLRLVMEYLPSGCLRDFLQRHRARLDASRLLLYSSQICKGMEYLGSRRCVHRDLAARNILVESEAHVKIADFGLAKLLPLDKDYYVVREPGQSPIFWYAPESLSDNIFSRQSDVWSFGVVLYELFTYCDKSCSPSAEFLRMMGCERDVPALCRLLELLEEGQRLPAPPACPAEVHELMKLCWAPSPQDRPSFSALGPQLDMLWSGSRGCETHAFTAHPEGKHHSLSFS
# Assay: Assay for CD23 expression on Ramos B-cells stimulated by IL-4 (Table IV: ability to inhibit JAK3 activity)
# Format: cell-based
# Conditions: tested under conditions described in Example 3 (so in the source)
# In short: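 Human Ramos B cells in RPMI with 5% serum, pre-incubated 1 h at 37 °C with compound or DMSO, then stimulated with IL-4 (final 50 units/mL) for 20–24 h. Surface CD23 upregulation measured by FACS staining as readout of JAK1/JAK3–Stat-6 signalling.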
row,Compound,IC50
1,"Cc1cc(Nc2ncc(C(=O)O)c(Nc3ccc4oc(=O)[nH]c4c3)n2)cc(C)c1C [Compound I-49, 4-(2-Oxo-2,3-dihydro-benzooxazol-5-ylamino)-2-(3,4,5-trimethyl-phenylamino)-pyrimidine-5-carboxylic acid trifluoroacetate salt]",> 10000 nM
2,"Cc1cnc(Nc2ccc3c(c2)C(=O)OC3)nc1Nc1ccc2oc(=O)[nH]c2c1 [II-8, 5-methyl-N4-(2-oxo-2,3-dihydro-1,3-benzoxazol-5-yl)-N2-(1-oxo-1,3-dihydro-isobenzofuran-6-yl)-2,4-pyrimidinediamine]",< 500 nM
3,"Cc1cnc(Nc2cc(C)c(C)c(C)c2)nc1Nc1ccc2oc(=O)n(COP(=O)(O)O)c2c1 [Compound I-130, 5-methyl-N4-[3-(phosphonooxy)methyl-2-oxo-2,3-dihydro-1,3-benzoxazol-5-yl]-N2-(3,4,5-trimethyl)phenyl-2,4-pyrimidinediamine arginine salt]",< 500 nM
4,"Cc1cnc(Nc2cc(C)c(C)c(C)c2)nc1Nc1cc(CN(C)C)c2oc(=O)[nH]c2c1 [Compound I-89, 5-(2-(3,4,5-trimethylphenylamino)-5-methylpyrimidin-4-ylamino)-7-((dimethylamino)methyl)benzo[d]oxazol-2(3H)-one ditrifluoroacetate salt]",500 to 5000 nM
5,"COc1c(F)ccc(Nc2ncc([N+](=O)[O-])c(Nc3ccc4oc(=O)[nH]c4c3)n2)c1F [Compound I-43, 5-(2-(2,4-difluoro-3-methoxyphenylamino)-5-nitropyrimidin-4-ylamino)benzo[d]oxazol-2(3H)-one trifluoroacetate salt]",> 10000 nM
6,"COc1c(F)ccc(Nc2ncc(F)c(Nc3cc(F)c4oc(=O)[nH]c4c3)n2)c1F [Compound I-193, 5-(2-(2,4-difluoro-3-methoxyphenylamino)-5-fluoropyrimidin-4-ylamino)-7-fluorobenzo[d]oxazol-2(3H)-one trifluoroacetate salt]",500 to 5000 nM
7,"O=c1[nH]c2cc(Nc3nc(Nc4ccc(F)c(-c5cccnc5)c4)ncc3F)ccc2o1 [Compound I-206, 5-(2-(4-fluoro-3-(pyridin-3-yl)phenylamino)-5-fluoropyrimidin-4-ylamino)benzo[d]oxazol-2(3H)-one]",< 500 nM
8,"COc1c(C)ccc(Nc2ncc(Cl)c(Nc3ccc4oc(=O)[nH]c4c3)n2)c1F [Compound I-67, 5-(5-chloro-2-(2-fluoro-3-methoxy-4-methylphenylamino)pyrimidin-4-ylamino)benzo[d]oxazol-2(3H)-one]",< 500 nM
9,"O=C1CCCCc2cc(Nc3ncc(F)c(Nc4ccc5oc(=O)[nH]c5c4)n3)ccc21 [II-5, 5-(5-fluoro-2-(5-oxo-6,7,8,9-tetrahydro-5H-benzo[7]annulen-2-ylamino)pyrimidin-4-ylamino)benzo[d]oxazol-2(3H)-one formate salt]",< 500 nM
10,"CC(C)c1ccc(Nc2ncc(F)c(Nc3ccc4oc(=O)[nH]c4c3)n2)cc1 [Compound I-200, 5-(2-(4-isopropylphenylamino)-5-fluoropyrimidin-4-ylamino)benzo[d]oxazol-2(3H)-one trifluoroacetate salt]",500 to 5000 nM
11,"COc1cc(Nc2ncc(F)c(Nc3ccc4oc(=O)[nH]c4c3)n2)ccc1-c1ccncc1 [Compound I-207, 5-(2-(3-methoxy-4-(pyridin-4-yl)phenylamino)-5-fluoropyrimidin-4-ylamino)benzo[d]oxazol-2(3H)-one formate salt]",> 10000 nM
12,"O=c1[nH]c2cc(Nc3nc(Nc4ccccc4)ncc3Cl)ccc2o1 [Compound I-4, 5-(5-chloro-2-(phenylamino)pyrimidin-4-ylamino)benzo[d]oxazol-2(3H)-one trifluoroacetate salt]",< 500 nM
13,"COc1cc(Nc2ncc(C)c(Nc3cc(C)c4oc(=O)[nH]c4c3)n2)cc(C)c1C [Compound I-109, 5-(2-(3-methoxy-4,5-dimethylphenylamino)-5-methylpyrimidin-4-ylamino)-7-methylbenzo[d]oxazol-2(3H)-one trifluoroacetate trifluoroacetate salt]",< 500 nM
14,"COc1cc(Nc2ncc(C)c(Nc3ccc4oc(=O)n(C)c4c3)n2)cc(C)c1F [Compound I-127, 5-(2-(4-fluoro-3-methoxy-5-methylphenylamino)-5-methylpyrimidin-4-ylamino)-3-methylbenzo[d]oxazol-2(3H)-one trifluoroacetate salt]",< 500 nM
15,"COc1cc(Nc2ncc(C)c(Nc3ccc4oc(=O)[nH]c4c3)n2)ccn1 [II-17, N2-(2-methoxypyridin-4-yl)-5-methyl-N4-(2-oxo-2,3-dihydro-1,3-benzoxazol-5-yl)-2,4-pyrimidinediamine]",< 500 nM
16,"Cc1cnc(Nc2cc(C)c(C)c(C)c2)nc1Nc1cc(/C=C/CCl)c2oc(=O)[nH]c2c1 [Compound I-96, 5-(2-(3,4,5-trimethylphenylamino)-5-methylpyrimidin-4-ylamino)-7-((E)-3-chloroprop-1-enyl)benzo[d]oxazol-2(3H)-one]",500 to 5000 nM
17,"COc1cc(Nc2ncc(F)c(Nc3cc(C)c4oc(=O)[nH]c4c3)n2)cc(C)c1C [Compound I-110, 5-(5-fluoro-2-(3-methoxy-4,5-dimethylphenylamino)pyrimidin-4-ylamino)-7-methylbenzo[d]oxazol-2(3H)-one trifluoroacetate salt]",< 500 nM
18,"CCN(CC)c1cc(Nc2ncc(Cl)c(Nc3ccc4oc(=O)[nH]c4c3)n2)cc(C)c1C [Compound I-86, 5-(5-chloro-2-(3-(diethylamino)-4,5-dimethylphenylamino)pyrimidin-4-ylamino)benzo[d]oxazol-2(3H)-one formate salt]",< 500 nM
19,"Cc1cnc(Nc2ccc(C#N)c(C)n2)nc1Nc1ccc2oc(=O)[nH]c2c1 [II-16, N2-(5-cyano-6-methylpyridin-2-yl)-5-methyl-N4-(2-oxo-2,3-dihydro-1,3-benzoxazol-5-yl)-2,4-pyrimidinediamine]",> 10000 nM
20,"CC(NC1CC1)c1ccc(Nc2ncc(F)c(Nc3ccc4oc(=O)[nH]c4c3)n2)cc1 (stereo not drawn) [Compound I-158, 5-(2-(4-(1-(cyclopropylamino)ethyl)phenylamino)-5-fluoropyrimidin-4-ylamino)benzo[d]oxazol-2(3H)-one formate salt]",< 500 nM
21,"Cc1ccc(Nc2ncc([N+](=O)[O-])c(Nc3ccc4oc(=O)[nH]c4c3)n2)cc1N(C)C [Compound I-45, 5-(2-(3-(dimethylamino)-4-methylphenylamino)-5-nitropyrimidin-4-ylamino)benzo[d]oxazol-2(3H)-one trifluoroacetate salt]",> 10000 nM
22,"COc1ccc(Nc2ncc(C)c(Nc3ccc4oc(=O)[nH]c4c3)n2)cc1N [Compound I-34, 5-[2-(3-Amino-4-methoxy-phenylamino)-5-methyl-pyrimidin-4-ylamino]-3H-benzooxazol-2-one]",< 500 nM
23,"COc1cc(Nc2ncc(F)c(Nc3ccc4oc(=O)[nH]c4c3)n2)cc(Cl)c1OC [Compound I-185, 5-(2-(3-chloro-4,5-dimethoxyphenylamino)-5-fluoropyrimidin-4-ylamino)benzo[d]oxazol-2(3H)-one trifluoroacetate salt]",< 500 nM
24,"Cc1cnc(Nc2cc(C)c(F)c(C)c2)nc1Nc1ccc2oc(=O)[nH]c2c1 [Compound I-146, N2-(3,5-dimethyl-4-fluoro)phenyl-5-methyl-N4-(2-oxo-2,3-dihydro-1,3-benzoxazol-5-yl)-2,4-pyrimidinediamine benzenesulfonic acid salt]",< 500 nM

# Reference: patent publication US11174251B2, “Compositions and methods for inhibition of the JAK pathway” (Rigel Pharmaceuticals, Inc., priority 2010, dated 2021)
